Data taken from US6348445B1, “Biologically active peptides with reduced toxicity in animals and a method for preparing same” (priority 1992, dated 2002).
Where a SMILES comes first, the peptide text is derived from it. [ ]: non-standard residue; d: D form. The star is where a group is joined. Octanoyl = CCCCCCCC(=O)*; Orn = NCCC[C@H](N)C(=O)O

Tests used:
Type in all cases: cell-based
[1] = tested on: P. aeruginosa strain ATCC 27853; details: ATCC 27853
Excerpt: (§1) Table I, which follows, indicates the Minimal Inhibitory Concentration (MIC) in […] of various peptides against S.aureus strain ATCC 25923(S), P. aeruginosa strain ATCC 27853(P), E. coli ATCC strain 25922(E), and C. 4albicans (CA). […] The peptides are unsubstituted at the N-terminal; substituted with an acetyl group at the N-terminal, as indicated by Ac-; substituted with an octanoyl group at the N-terminal, as indicated by Oct-; substituted with spinogosine, as indicated by Sph-; substituted with a succinyl group, as indicated by Suc-; substituted with a hexanoyl group, as indicated by Hex-; substituted with a heptanoyl group, as indicated by Hep-; substituted with a valeryl group, as indicated by Val-; substituted with a myristryl group, as indicated by Myr-; or substituted with an ibuprofyl group, as indicated by Ibu-;
(§2) The procedure for the anti-bacterial assay is based upon the guidelines of the National Committee for Clinical Laboratory Standards, Document M7-T2, Volume 8, No. 8, 1988, which document is entirely incorporated herein by reference.
(§3) Stock solutions of peptides, with and without the appropriate substitutions, were prepared at a concentration of 512 μg/ml in sterile deionized distilled water and stored at −70° C.
(§4) The stock peptide solution was diluted in serial dilutions (1:2) down the wells of a microtiter plate so that the final concentrations of peptides in the wells were 0.25, 0.50, 1, 2, 4, 8, 16, 32, 64, 128 and 256 μg/ml. 1-5×10^5 CFUs/ml of either S. aureus ATCC 25923, E. coli ATCC 25922, P. aeruginosa ATCC 27853, or C. albicans, were added to the wells in full strength Mueller Hinton broth (BBL 11443) from a mid-log culture. The inoculum was standardized spectrophotometrically at 600 nm and was verified by colony counts. The plates were incubated for 16-20 hours at 37° C., and the minimal inhibitory concentration (MIC) for each peptide was determined. Minimal inhibitory concentration is defined as the lowest concentration of peptide which produces a clear well in the microtiter plate. The minimal inhibitory concentration of each of the peptides with and/or without the appropriate substitutions is given in Table I below.
(§5) The in vitro anti-microbial activities of the methane sulfonate derivatives were determined according to the methods described in Examples 1 and 2. The activities against ATCC strains of S. aureus, E. coli, P. aeruginosa, and C. albicans, and the hemolysis of red blood cells were compared to the parent compound (Table IV). The activities for Compound 843 (Oct-SEQ ID NO:143) methane sulfonate against clinical strains of P. aeruginosa isolated from cystic fibrosis patients were compared to the parent compound (Table V). The activity for Compound 469 (Oct-SEQ ID NO:27) methane sulfonate against P. gingivalis was compared to the parent compound (Table VI).

[2] = tested on: E. coli ATCC strain 25922; test: Minimal Inhibitory Concentration, microtiter broth dilution; details: ATCC strain 25922
Excerpt: as §1, §2, §3, §4, §5

C. albicans = tested on: C. albicans
Excerpt: as §1, §2, §3, §4

| SMILES | Minimal Inhibitory Concentration P [1] [µg/mL] | Minimal Inhibitory Concentration E [2] [µg/mL] | Minimal Inhibitory Concentration CA (C. albicans) [µg/mL] |
| --- | --- | --- | --- |
| CCCCCCCC(=O)N[C@@H](CCCCN)C(=O)N[C@@H](CC(C)C)C(=O)N[C@@H](CCCCN)C(=O)N[C@@H](CCCCN)C(=O)N[C@@H](CCCCN)C(=O)N[C@@H](Cc1ccccc1)C(=O)N[C@@H](CC(C)C)C(=O)N[C@@H](CCCCN)C(=O)N[C@@H](CCCCN)C(=O)N[C@@H](CC(C)C)C(N)=O [Oct-(SEQ ID NO: 129)-NH2] (Octanoyl-KLKKKFLKKL-NH2) | 16 | 32 | 128 |
| CCCCCCCC(=O)N[C@@H](CC(C)C)C(=O)N[C@@H](CCCCN)C(=O)N[C@@H](CCCCN)C(=O)N[C@@H](CC(C)C)C(=O)N[C@@H](CC(C)C)C(=O)N[C@@H](CCC(=O)O)C(=O)N[C@@H](CCCCN)C(=O)N[C@@H](CC(C)C)C(=O)N[C@@H](CCCCN)C(=O)N[C@@H](CCCCN)C(=O)N[C@@H](CC(C)C)C(N)=O [Oct-(SEQ ID NO: 130)-NH2] (Octanoyl-LKKLLEKLKKL-NH2) | 4 | 4 | 8 |
| CCCCCCCC(=O)N[C@@H](CC(C)C)C(=O)N[C@@H](CCCCN)C(=O)N[C@@H](CCCCN)C(=O)N[C@@H](CC(C)C)C(=O)N[C@@H](CC(C)C)C(=O)N[C@@H](CCCCN)C(=O)N[C@@H](CCC(=O)O)C(=O)N[C@@H](CC(C)C)C(=O)N[C@@H](CCCCN)C(=O)N[C@@H](CCCCN)C(=O)N[C@@H](CC(C)C)C(N)=O [Oct-(SEQ ID NO: 131)-NH2] (Octanoyl-LKKLLKELKKL-NH2) | 8 | 4 | 64 |
| CCCCCCCC(=O)N[C@@H](CC(C)C)C(=O)N[C@@H](CCCCN)C(=O)N[C@@H](CCCCN)C(=O)N[C@@H](CC(C)C)C(=O)N[C@@H](CC(C)C)C(=O)N[C@@H](CCCCN)C(=O)N[C@@H](CCCCN)C(=O)N[C@@H](CC(C)C)C(=O)N[C@@H](CCCCN)C(=O)N[C@@H](CCCCN)C(=O)N[C@@H](CC(C)C)C(=O)N[C@@H](CS)C(N)=O [Oct-(SEQ ID NO: 133)-NH2] (Octanoyl-LKKLLKKLKKLC-NH2) | 32 | 32 | 128 |
| CCCCCCCC(=O)N[C@@H](CCCCN)C(=O)N[C@@H](CCCCN)C(=O)N[C@@H](Cc1ccccc1)C(=O)NCC(=O)N[C@@H](CCCCN)C(=O)N[C@@H](CCCCN)C(=O)N[C@@H](Cc1ccccc1)C(=O)N[C@H](C(=O)N[C@@H](CCCCN)C(=O)N[C@H](C(=O)N[C@@H](CC(C)C)C(=O)N[C@@H](CCCCN)C(=O)N[C@@H](CCCCN)C(N)=O)[C@@H](C)CC)C(C)C [Oct-(SEQ ID NO: 135)-NH2] (Octanoyl-KKFGKKFVKILKK-NH2) | 8 | 64 | 64 |
| CCCCCCCC(=O)N[C@@H](CC(C)C)C(=O)N[C@@H](CCCCN)C(=O)N[C@@H](CCCCN)C(=O)N[C@@H](CC(C)C)C(=O)N[C@@H](CC(C)C)C(=O)N[C@@H](CCCCN)C(=O)N[C@@H](CCCCN)C(N)=O [Oct-(SEQ ID NO: 137)-NH2] (Octanoyl-LKKLLKK-NH2) | 256 | >256 | 256 |
| CCCCCCCC(=O)N[C@@H](CC(C)C)C(=O)N[C@@H](CCCCN)C(=O)N[C@@H](CCCCN)C(=O)N[C@@H](CC(C)C)C(=O)N[C@@H](CC(C)C)C(=O)N[C@@H](CCCCN)C(=O)N[C@@H](CC(C)C)C(=O)N[C@@H](CC(C)C)C(=O)N[C@@H](CCCCN)C(N)=O [Oct-(SEQ ID NO: 138)-NH2] (Octanoyl-LKKLLKLLK-NH2) | 8 | 8 | 64 |
| CCCCCCCC(=O)N[C@@H](CCCCN)C(=O)N[C@@H](CCCCN)C(=O)N[C@@H](CC(C)C)C(=O)N[C@@H](CC(C)C)C(=O)N[C@@H](CCCCN)C(=O)N[C@@H](CCCCN)C(=O)N[C@@H](CC(C)C)C(=O)N[C@@H](CCCCN)C(=O)N[C@@H](CCCCN)C(=O)N[C@@H](CC(C)C)C(=O)N[C@@H](CC(C)C)C(=O)N[C@@H](CCCCN)C(=O)N[C@@H](CCCCN)C(=O)N[C@@H](CC(C)C)C(N)=O [Oct-(SEQ ID NO: 139)-NH2] (Octanoyl-KKLLKKLKKLLKKL-NH2) | 32 | 16 | 128 |
| CCCCCCCC(=O)N[C@@H](CC(C)C)C(=O)N[C@@H](CCCN)C(=O)N[C@@H](CCCCN)C(=O)N[C@@H](CC(C)C)C(=O)N[C@@H](CC(C)C)C(=O)N[C@@H](CCCCN)C(=O)N[C@@H](CCCCN)C(=O)N[C@@H](CC(C)C)C(=O)N[C@@H](CCCCN)C(=O)N[C@@H](CCCCN)C(=O)N[C@@H](CC(C)C)C(N)=O [Oct-(SEQ ID NO: 141)-NH2] (Octanoyl-L[Orn]KLLKKLKKL-NH2) | 4 | 8 | 32 |
| CCCCCCCC(=O)N[C@@H](CC(C)C)C(=O)N[C@@H](CCCN)C(=O)N[C@@H](CCCN)C(=O)N[C@@H](CC(C)C)C(=O)N[C@@H](CC(C)C)C(=O)N[C@@H](CCCN)C(=O)N[C@@H](CCCN)C(=O)N[C@@H](CC(C)C)C(=O)N[C@@H](CCCN)C(=O)N[C@@H](CCCN)C(=O)N[C@@H](CC(C)C)C(N)=O [Oct-(SEQ ID NO: 142)-NH2] (Octanoyl-L[Orn][Orn]LL[Orn][Orn]L[Orn][Orn]L-NH2) | 2 | 8 | 32 |
| CCCCCCCC(=O)N[C@@H](CCCN)C(=O)N[C@@H](CCCN)C(=O)N[C@@H](CC(C)C)C(=O)N[C@@H](CC(C)C)C(=O)N[C@@H](CCCN)C(=O)N[C@@H](CCC(N)=O)C(=O)N[C@@H](CC(C)C)C(=O)N[C@@H](CCCN)C(=O)N[C@@H](CCCN)C(=O)N[C@@H](CC(C)C)C(N)=O [Oct-(SEQ ID NO: 144)-NH2] (Octanoyl-[Orn][Orn]LL[Orn]QL[Orn][Orn]L-NH2) | 4 | 16 | 32 |
| CCCCCCCC(=O)N[C@@H](CCCNC(=N)N)C(=O)N[C@@H](CC(C)C)C(=O)N[C@@H](CC(C)C)C(=O)N[C@@H](CCCNC(=N)N)C(=O)N[C@@H](CCCNC(=N)N)C(=O)N[C@@H](CC(C)C)C(=O)N[C@@H](CCCNC(=N)N)C(=O)N[C@@H](CCCNC(=N)N)C(=O)N[C@@H](CC(C)C)C(N)=O [Oct-(SEQ ID NO: 145)-NH2] (Octanoyl-RLLRRLRRL-NH2) | 8 | 16 | 64 |
| CCCCCCCC(=O)N[C@H](C(=O)N[C@@H](CCCCN)C(=O)N[C@@H](CCCCN)C(=O)N[C@@H](CC(C)C)C(=O)N[C@@H](CC(C)C)C(=O)N[C@@H](CCCCN)C(=O)N[C@@H](CCCCN)C(=O)N[C@@H](CC(C)C)C(=O)N[C@@H](CCCCN)C(=O)N[C@@H](CCCCN)C(=O)N[C@@H](CC(C)C)C(N)=O)C(C)C [Oct-(SEQ ID NO: 146)-NH2] (Octanoyl-VKKLLKKLKKL-NH2) | 4 | 16 | 32 |
| CCCCCCCC(=O)N[C@@H](CCCCN)C(=O)N[C@@H](CCCCN)C(=O)N[C@@H](CC(C)C)C(=O)N[C@@H](CC(C)C)C(=O)N[C@@H](CCCCN)C(=O)N[C@@H](CCCCN)C(=O)N[C@@H](CC(C)C)C(=O)N[C@@H](CCCCN)C(=O)N[C@@H](CCCCN)C(=O)N[C@@H](CC(C)C)C(=O)N[C@@H](CC(C)C)C(=O)N[C@@H](CCCCN)C(=O)N[C@@H](CCCCN)C(=O)N[C@@H](CC(C)C)C(N)=O [Oct-(SEQ ID NO: 147)-NH2] (Octanoyl-KKLLKKLKKLLKKL-NH2) | 32 | 32 | 128 |
